In ChEMBL document CHEMBL5154690, “Discovery of a tricyclic farnesoid X receptor agonist HEC96719, a clinical candidate for treatment of non-alcoholic steatohepatitis” (Eur J Med Chem, 2022):
Active and inactive are the calls of the source. The rule behind the calls is not given here.

How the values were obtained:
Mus musculus [1] = assay: Antifibrotic activity in C57BL/6 mouse model of CCI4-induced liver fibrosis assessed as decrease in serum TBIL level at 1 mg/kg, po administered once daily for 4 weeks; format: functional, organism-based
[2] = Volume of distribution at steady state in male Beagle dog at 1 mg/kg, iv measured by LC-MS/MS analysis; format: ADME, organism-based, Canis lupus familiaris; details: in vivo, read-out: Vdss
[3] = Drug metabolism in urine of Sprague-Dawley rat assessed as production of toxic metabolites at 4.5 mg/kg, po administered as C14-lableled compound with single dose; format: ADME, organism-based; details: in vivo
[4] = Drug recovery in liver of male Sprague-Dawley rat at 4.5 mg/kg, po administered as C14-lableled compound and assessed as radioactivity and measured at 0.25 hrs; format: ADME, organism-based; details: in vivo
[5] = AUC (0 to t) in male Sprague-Dawley rat at 1 mg/kg, iv measured by LC-MS/MS analysis; format: ADME, organism-based; parameters: dose 1 mg/kg, route iv; details: in vivo
[6] = Ratio of drug level in kidney to plasma in male Sprague-Dawley rat at 4.5 mg/kg, po administered as C14-lableled compound and measured at 0.25 to 6 hrs; format: ADME, organism-based; details: other tissue, time 0.25-6 hrs
[7] = molecular target: Voltage-gated inwardly rectifying potassium channel KCNH2 (Homo sapiens, UniProt Q12809); assay: Inhibition of hERG; format: toxicity
Voltage-gated inwardly rectifying potassium channel KCNH2, sequence (Q12809 whole entry): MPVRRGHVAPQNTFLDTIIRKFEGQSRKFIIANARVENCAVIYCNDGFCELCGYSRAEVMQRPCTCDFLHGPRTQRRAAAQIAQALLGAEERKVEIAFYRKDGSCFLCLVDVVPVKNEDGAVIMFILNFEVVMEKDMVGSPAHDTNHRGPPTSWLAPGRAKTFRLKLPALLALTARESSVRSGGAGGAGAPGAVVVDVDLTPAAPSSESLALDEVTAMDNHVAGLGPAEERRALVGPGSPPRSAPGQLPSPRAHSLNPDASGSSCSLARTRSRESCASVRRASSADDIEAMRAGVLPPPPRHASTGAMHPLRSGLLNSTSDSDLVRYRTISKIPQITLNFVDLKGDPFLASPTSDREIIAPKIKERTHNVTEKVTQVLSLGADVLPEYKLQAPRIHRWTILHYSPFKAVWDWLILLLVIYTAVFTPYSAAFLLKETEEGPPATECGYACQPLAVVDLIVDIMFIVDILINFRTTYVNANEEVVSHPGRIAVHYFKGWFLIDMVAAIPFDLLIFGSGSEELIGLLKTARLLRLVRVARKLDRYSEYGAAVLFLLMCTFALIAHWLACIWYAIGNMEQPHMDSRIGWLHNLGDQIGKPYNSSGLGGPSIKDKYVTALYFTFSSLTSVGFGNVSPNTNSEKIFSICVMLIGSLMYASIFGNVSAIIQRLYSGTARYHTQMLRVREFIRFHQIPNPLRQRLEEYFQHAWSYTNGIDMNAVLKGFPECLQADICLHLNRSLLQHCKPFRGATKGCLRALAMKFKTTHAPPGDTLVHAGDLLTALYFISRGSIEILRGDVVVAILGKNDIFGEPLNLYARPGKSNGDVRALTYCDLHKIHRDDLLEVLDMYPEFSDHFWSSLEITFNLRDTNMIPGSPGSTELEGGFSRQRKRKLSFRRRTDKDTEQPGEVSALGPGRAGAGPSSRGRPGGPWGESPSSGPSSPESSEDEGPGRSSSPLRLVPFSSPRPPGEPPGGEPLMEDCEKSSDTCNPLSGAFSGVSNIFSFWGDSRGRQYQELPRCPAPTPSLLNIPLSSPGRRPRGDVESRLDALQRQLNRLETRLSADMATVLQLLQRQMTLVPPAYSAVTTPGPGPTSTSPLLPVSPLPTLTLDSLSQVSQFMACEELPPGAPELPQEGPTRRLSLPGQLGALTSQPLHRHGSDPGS

Mus musculus [8] = assay: Anti-NASH activity against high fat (HF) diet-induced nonalcoholic steatohepatitis in leptin-deficient ob/ob mouse model assessed as reduction in serum TG level at 3 mg/kg, po administered once daily from week 5 to 10; format: functional, organism-based
[9] = Volume of distribution at steady state in male Sprague-Dawley rat at 1 mg/kg, iv measured by LC-MS/MS analysis; format: ADME, organism-based; details: in vivo, read-out: Vdss
[10] = Drug recovery in liver of male Sprague-Dawley rat at 4.5 mg/kg, po administered as C14-lableled compound and assessed as radioactivity and measured at 6 hrs; format: ADME, organism-based; details: in vivo
Mus musculus [11] = assay: Antifibrotic activity in C57BL/6 mouse model of CCI4-induced liver fibrosis assessed as decrease in serum ALT level at 1 mg/kg, po administered once daily for 4 weeks; format: functional, organism-based
[12] = Drug recovery in lung of male Sprague-Dawley rat at 4.5 mg/kg, po administered as C14-lableled compound and assessed as radioactivity and measured at 0.25 hrs; format: ADME, organism-based; details: in vivo
[13] = Drug recovery in ileum of male Sprague-Dawley rat at 4.5 mg/kg, po administered as C14-lableled compound and assessed as radioactivity and measured at 24 hrs; format: ADME, organism-based; details: in vivo
[14] = Drug recovery in lung of male Sprague-Dawley rat at 4.5 mg/kg, po administered as C14-lableled compound and assessed as radioactivity and measured at 6 hrs; format: ADME, organism-based; details: in vivo
[15] = Drug recovery in ileum of male Sprague-Dawley rat at 4.5 mg/kg, po administered as C14-lableled compound and assessed as radioactivity and measured at 1 hr; format: ADME, organism-based; details: in vivo
[16] = Drug recovery in stomach of male Sprague-Dawley rat at 4.5 mg/kg, po administered as C14-lableled compound and assessed as radioactivity and measured at 0.25 hrs; format: ADME, organism-based; details: in vivo
[17] = Drug recovery in heart of male Sprague-Dawley rat at 4.5 mg/kg, po administered as C14-lableled compound and assessed as radioactivity and measured at 0.25 hrs; format: ADME, organism-based; details: in vivo
[18] = Drug metabolism in bile of Sprague-Dawley rat assessed as production of toxic metabolites at 4.5 mg/kg, po administered as C14-lableled compound with single dose; format: ADME, organism-based; details: in vivo
[19] = molecular target: T1, Bile acid receptor (Rattus norvegicus) (UniProt Q62735); assay: In vivo activation of FXR in male Sprague-Dawley rat assessed as fold increase in FGF15 level at 5 mg/kg, po administered once daily for 14 days measured at 6 hrs by ELISA; format: functional, organism-based; details: time 14.0 day
T1 sequence (whole entry): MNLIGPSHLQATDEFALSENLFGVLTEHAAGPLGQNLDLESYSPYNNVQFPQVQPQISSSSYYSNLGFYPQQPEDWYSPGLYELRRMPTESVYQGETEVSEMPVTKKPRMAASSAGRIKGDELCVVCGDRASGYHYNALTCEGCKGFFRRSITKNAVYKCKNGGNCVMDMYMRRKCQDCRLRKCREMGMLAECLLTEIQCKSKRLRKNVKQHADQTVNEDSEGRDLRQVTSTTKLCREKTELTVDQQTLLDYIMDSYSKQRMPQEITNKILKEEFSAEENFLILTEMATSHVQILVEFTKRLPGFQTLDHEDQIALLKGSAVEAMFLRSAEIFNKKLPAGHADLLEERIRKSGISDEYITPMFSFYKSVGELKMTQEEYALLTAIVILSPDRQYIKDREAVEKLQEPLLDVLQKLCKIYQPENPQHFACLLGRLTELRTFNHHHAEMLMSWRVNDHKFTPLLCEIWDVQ

[20] = Drug recovery in plasma of male Sprague-Dawley rat at 4.5 mg/kg, po administered as C14-lableled compound and assessed as radioactivity and measured at 0.25 hrs; format: ADME, organism-based; details: in vivo
Mus musculus [21] = assay: Antifibrotic activity in C57BL/6 mouse model of CCI4-induced liver fibrosis assessed as reduction in fibrosis area at 0.1 to 1 mg/kg, po administered once daily for 4 weeks; format: functional, organism-based; details: dose 0.1-1 mg/kg
[22] = AUC (0 to t) in male Sprague-Dawley rat at 5 mg/kg, po measured by LC-MS/MS analysis; format: ADME, organism-based; parameters: dose 5 mg/kg, route po; details: in vivo
[23] = Drug recovery in stomach of male Sprague-Dawley rat at 4.5 mg/kg, po administered as C14-lableled compound and assessed as radioactivity and measured at 24 hrs; format: ADME, organism-based; details: in vivo
[24] = Drug recovery in lung of male Sprague-Dawley rat at 4.5 mg/kg, po administered as C14-lableled compound and assessed as radioactivity and measured at 24 hrs; format: ADME, organism-based; details: in vivo, BLD = below limit of detection
[25] = molecular target: T2, Nuclear receptor subfamily 1 group I member 2 (Homo sapiens, UniProt O75469); assay: Agonist activity at PXR (unknown origin)
T2 sequence (O75469 whole entry): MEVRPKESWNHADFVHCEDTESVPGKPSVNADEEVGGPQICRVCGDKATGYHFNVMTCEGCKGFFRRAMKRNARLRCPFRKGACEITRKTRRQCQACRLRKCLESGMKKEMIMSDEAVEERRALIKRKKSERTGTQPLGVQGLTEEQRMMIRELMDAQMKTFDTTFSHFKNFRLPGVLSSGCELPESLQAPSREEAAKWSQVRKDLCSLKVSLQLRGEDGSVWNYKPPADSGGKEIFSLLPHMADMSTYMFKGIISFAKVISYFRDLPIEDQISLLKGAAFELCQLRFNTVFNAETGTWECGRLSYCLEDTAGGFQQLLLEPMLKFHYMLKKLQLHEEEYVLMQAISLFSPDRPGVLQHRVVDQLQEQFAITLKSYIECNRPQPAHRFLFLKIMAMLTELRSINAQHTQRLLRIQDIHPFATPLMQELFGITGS

In the case of `O=C(O)c1ccc2c(c1)Oc1ccc(OCc3c(-c4c(Cl)cccc4Cl)noc3C3CC3)nc1C1(CC1)C2`, the Activity (Mus musculus [1]) is reported as “Active”, the Vd [2] is reported as 1.12 L/kg and the Drug metabolism [3] is reported as “Metabolite_Notdetected”. For the same compound, the Drug recovery [4] was 5308 ngequiv/g, the AUC(0-t) [5] was 473 ng·h/mL and the Ratio [6] was 1.8. For the same compound, the IC50 [7] was > 5.24 µM, the Activity (Mus musculus [8]) was “Active” and the Vd [9] was 0.65 L/kg. For the same compound, the Drug recovery [10] was 521 ngequiv/g, the Activity (Mus musculus [11]) was “Active” and the Drug recovery [12] was 868 ngequiv/g. The Drug recovery [13] was 1542 ngequiv/g, the Drug recovery [14] was 63.4 ngequiv/g and the Drug recovery [15] was 1553 ngequiv/g. The Drug recovery [16] was 3213 ngequiv/g, the Drug recovery [17] was 208 ngequiv/g and the Drug metabolism [18] was “Metabolite_Notdetected”. The fold change (FC) [19] was 18, the Drug recovery [20] was 229 ngequiv/g and the Activity (Mus musculus [21]) was “Active”. For the same compound, the AUC(0-t) [22] was 1180 ng·h/mL, the Drug recovery [23] was 108 ngequiv/g and the Drug recovery [24] was “Bld”. The EC50 [25] was > 10 µM.
